From patent US6699884B2, “Fluoro-substituted benzenesulfonyl compounds for the treatment of inflammation” (Pharmacia Corporation, priority 2001, dated 2004)

Key:
Human COX-2 = biological target: T1, Human COX-2 (Homo sapiens, UniProt P35354); assay: Fast assay for COX-2 activity (PGE2 formed, ELISA); type: biochemical; settings: recombinant enzyme in CHAPS-solubilized insect cell membranes; 10 min pre-incubation at 25° C.; 10 μM arachidonic acid
T1 construct: A 2.0 kb fragment containing the coding region of either human or murine COX-1 or human or murine COX-2; made in house; host or cells: SF9 insect cells (baculovirus, pVL1393)
T1 sequence (P35354 18-604): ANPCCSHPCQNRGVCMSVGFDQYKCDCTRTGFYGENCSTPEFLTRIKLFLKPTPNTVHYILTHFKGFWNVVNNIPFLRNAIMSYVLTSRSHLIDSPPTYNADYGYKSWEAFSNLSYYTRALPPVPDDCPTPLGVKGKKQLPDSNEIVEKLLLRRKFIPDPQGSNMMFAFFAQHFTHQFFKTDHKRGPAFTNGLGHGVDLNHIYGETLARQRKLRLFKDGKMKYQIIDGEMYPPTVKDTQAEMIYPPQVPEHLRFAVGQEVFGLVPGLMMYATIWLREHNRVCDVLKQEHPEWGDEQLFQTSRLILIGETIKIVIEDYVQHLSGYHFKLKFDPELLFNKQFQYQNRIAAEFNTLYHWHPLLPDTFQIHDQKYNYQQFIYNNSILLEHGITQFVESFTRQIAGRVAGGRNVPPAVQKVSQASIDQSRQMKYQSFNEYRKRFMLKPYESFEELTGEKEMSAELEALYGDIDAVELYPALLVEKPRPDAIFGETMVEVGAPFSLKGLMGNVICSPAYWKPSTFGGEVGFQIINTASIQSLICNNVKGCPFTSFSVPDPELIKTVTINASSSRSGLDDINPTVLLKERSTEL

Human COX-1 = biological target: T2, Human COX-1 (Homo sapiens, UniProt P23219); assay: Fast assay for COX-1 activity (PGE2 formed, ELISA); type: biochemical; settings: recombinant enzyme in CHAPS-solubilized insect cell membranes; 10 min pre-incubation at 25° C.; 10 μM arachidonic acid
T2 construct: A 2.0 kb fragment containing the coding region of either human or murine COX-1 or human or murine COX-2; made in house; host or cells: SF9 insect cells (baculovirus, pVL1393)
Protocol: Recombinant baculoviruses were isolated by transfecting 4 μg of baculovirus transfer vector DNA into SF9 insect cells (2×10^8) along with 200 ng of linearized baculovirus plasmid DNA by the calcium phosphate method. See M. D. Summers and G. E. Smith, A Manual of Methods for Baculovirus Vectors and Insect Cell Culture Procedures, Texas Agric. Exp. Station Bull. […] Recombinant viruses were purified by three rounds of plaque purification and high titer (10^7-10^8 pfu/mL) stocks of virus were prepared. For large scale production, SF9 insect cells were infected in 10 liter fermentors (0.5×10^6/mL) with the recombinant baculovirus stock such that the multiplicity of infection was 0.1. After 72 hours the cells were centrifuged and the cell pellet homogenized in Tris/Sucrose (50 mM: 25%, pH 8.0) containing 1% 3-[(3-cholamidopropyl)dimethylammonio]-1-propanesulfonate (CHAPS). The homogenate was centrifuged at 10,000×G for 30 minutes, and the resultant supernatant was stored at −80° C. before being assayed for COX activity.
COX activity was assayed as PGE2 formed/μg protein/time using an ELISA to detect the prostaglandin released. CHAPS-solubilized insect cell membranes containing the appropriate COX enzyme were incubated in a potassium phosphate buffer (50 mM, pH 8.0) containing epinephrine, phenol, and heme with the addition of arachidonic acid (10 μM). Compounds were pre-incubated with the enzyme for 10-20 minutes prior to the addition of arachidonic acid. Any reaction between the arachidonic acid and the enzyme was stopped after ten minutes at 37° C. room temperature by transferring 40 μl of reaction mix into 160 μl ELISA buffer and 25 μM indomethacin. The PGE2 formed was measured by standard ELISA technology (Cayman Chemical).
COX activity was assayed as PGE2 formed/μg protein/time using an ELISA to detect the prostaglandin released. […] Compounds were pre-incubated with the enzyme for 10 minutes at 25° C. prior to the addition of arachidonic acid. Any reaction between the arachidonic acid and the enzyme was stopped after two minutes at 37° C./room temperature by transferring 40 μl of reaction mix into 160 μl ELISA buffer and 25 μM indomethacin. The PGE2 formed was measured by standard ELISA technology (Cayman Chemical).

T2 sequence (P23219 24-599): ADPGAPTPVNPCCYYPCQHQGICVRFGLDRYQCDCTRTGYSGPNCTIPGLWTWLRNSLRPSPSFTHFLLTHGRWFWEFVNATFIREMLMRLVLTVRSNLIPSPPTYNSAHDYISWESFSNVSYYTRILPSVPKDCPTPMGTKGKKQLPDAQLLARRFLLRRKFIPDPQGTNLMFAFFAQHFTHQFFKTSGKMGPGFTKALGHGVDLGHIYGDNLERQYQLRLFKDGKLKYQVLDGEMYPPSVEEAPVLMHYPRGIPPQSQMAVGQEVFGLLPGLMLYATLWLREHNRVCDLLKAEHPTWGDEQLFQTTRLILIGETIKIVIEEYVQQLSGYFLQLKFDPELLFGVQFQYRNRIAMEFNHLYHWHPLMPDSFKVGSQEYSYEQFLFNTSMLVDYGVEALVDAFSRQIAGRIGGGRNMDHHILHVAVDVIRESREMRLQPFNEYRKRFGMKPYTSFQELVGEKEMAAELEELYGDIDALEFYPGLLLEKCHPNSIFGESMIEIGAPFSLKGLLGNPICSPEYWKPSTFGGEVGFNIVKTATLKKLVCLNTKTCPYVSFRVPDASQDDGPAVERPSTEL

Row | Compound | IC50 (Human COX-2) | IC50 (Human COX-1)
1 | CS(=O)(=O)c1cc(F)c(-c2cc(C(F)(F)F)nn2-c2ccc(Cl)cc2)cc1F [Example 7, 1-(4-chlorophenyl)-5-[2,5-difluoro-4-(methylsulfonyl)-phenyl]-3-(trifluoromethyl)-1H-pyrazole] | 90 nM | 56.7 µM
2 | CS(=O)(=O)c1c(F)cc(-c2cc(C(F)(F)F)nn2-c2ccc(F)cc2)cc1F [Example 1, 5-[3,5-difluoro-4-(methylsulfonyl)phenyl]-1-(4-fluorophenyl)-3-(trifluoromethyl)-1H-pyrazole] | 3440 nM | > 100 µM
3 | CS(=O)(=O)c1c(F)cc(-c2cc(C(F)(F)F)nn2-c2ccc(OC(F)(F)F)cc2)cc1F [Example 4, 5-[3,5-difluoro-4-(methylsulfonyl)phenyl]-1-[4-(trifluoromethoxy)phenyl]-3-(trifluoromethyl)-1H-pyrazole] | 100 nM | > 100 µM
4 | CS(=O)(=O)c1c(F)cc(-c2cc(C(F)F)nn2C2CCCCC2)cc1F [Example 5, 1-cyclohexyl-3-(difluoromethyl)-5-[3,5-difluoro-4-(methylsulfonyl)phenyl]-1H-pyrazole] |  | > 100 µM
5 | Cc1onc(-c2ccccc2)c1-c1cc(F)c(S(N)(=O)=O)c(F)c1 [Example 15, 2,6-difluoro-4-(5-methyl-3-phenylisoxazol-4-yl)benzene-sulfonamide] | 120 nM | > 100 µM

Next, values leading:

Row | IC50 (Human COX-2) | IC50 (Human COX-1) | Compound
6 | 90 nM | > 100 µM | Cc1ccc(-n2nc(C(F)(F)F)cc2-c2cc(F)c(S(C)(=O)=O)c(F)c2)cc1Cl [Example 6, 1-(3-chloro-4-methylphenyl)-5-[3,5-difluoro-4-(methylsulfonyl)phenyl]-3-(trifluoromethyl)-1H-pyrazole]
7 |  | > 100 µM | Cc1onc(-c2ccccc2)c1-c1cc(F)c(S(C)(=O)=O)c(F)c1 [Example 14, 4-[3,5-difluoro-4-(methylsulfonyl)phenyl]-5-methyl-3-phenylisoxazole]
8 | 550 nM | > 100 µM | Cc1ccc(-n2nc(C(F)F)cc2-c2cc(F)c(S(C)(=O)=O)c(F)c2)cc1Cl [Example 2, 1-(3-chloro-4-methylphenyl)-3-(difluoromethyl)-5-[3,5-difluoro-4-(methylsulfonyl)phenyl]-1H-pyrazole]
9 | 300 nM | > 100 µM | CS(=O)(=O)c1c(F)cc(-c2cc(C(F)(F)F)nn2-c2cccc(C(F)(F)F)c2)cc1F [Example 3, 5-[3,5-difluoro-4-(methylsulfonyl)phenyl]-3-(trifluoromethyl)-1-[3-(trifluoromethyl)phenyl]-1H-pyrazole]
10 | 250 nM | 14.8 µM | COc1ccc(-n2nc(C(F)(F)F)cc2-c2cc(F)c(S(C)(=O)=O)cc2F)cc1 [Example 8, 5-[2,5-difluoro-4-(methylsulfonyl)phenyl]-1-(4-methoxyphenyl)-3-(trifluoromethyl)-1H-pyrazole]
